Entries after “also recorded” stand apart in the source; their conditions may differ.
Columns and labels:
[1] = Rose Bengal photosensitization reaction, depletion of 5-MTHF (HPLC)
Method: Photochemical reactions with Rose Bengal were carried out as follows. Samples in septum-stoppered glass cuvettes were illuminated at a distance of 12 cm by light from a 40 W tungsten lamp passed through a Wratten #16 gelatin filter. Reactions were equilibrated with air or sparged with 100% or 1.8% O2 in argon, or extensively with 100% argon, and illumination was carried out at ambient temperature. Samples were taken through the septum by syringe and injected directly into the HPLC.
(§1) 5-MTHF photodegradation was assayed by HPLC using the following procedure. Samples were taken during light exposure at various times and analyzed by HPLC on a Luna phenyl-hexyl 5 μm (25×0.46 cm) column (Phenomenex) eluted at a flow rate of 1.5 ml/min with ammonium phosphate (20 mM in ammonium), pH 2.8/acetonitrile (17:1) with detection by UV absorbance using Waters 996, photodiode array spectrometer.

[2] = Photodegradation on UVA, UVB or visible light exposure without photosensitizer (HPLC)
Method: (§2) UVA and UVB irradiation were carried out under the following conditions. Samples were exposed to UV light at a distance of 30 cm from either a 15 W UVA lamp, Sylvania 350 BL, (lambda max=365 nm, 820 μW/cm2) or 15 W UVB lamp, UVP (lambda max=302 nm, 820 μW/cm2); both purchased from UVP, Inc., USA. The lamps were mounted in a UVP Model XX-15 lamp holder rested on a XX exposure stand.
(§3) To give a solution depth of about 3 mm, 0.5 ml reaction volumes were used in clear 24-well plates. To prevent evaporation during the UVA exposure, samples were covered with MICROAMP™ Optical Adhesive Film (ABI) allowing greater than 80% transmission above 330 nm. […] reactions were covered with a quartz window. All reactions were performed at ambient temperature in 10 mM potassium phosphate pH 7.41 (measured at 10 mM and 21° C.), equilibrated to air, in the presence of 100 μM diethylenetriaminepentaacetic acid in order to prevent the effect of adventitious redox-active metal ions, pre-empt the Fenton reaction and avoid hydroxyl radical-induced damage.
as §1

[3] = Method: as §2, §3
(§4) Reactions with photoexcited pterin-6-carboxylic acid or folic acid were carried out as follows. Samples were exposed in 24-well plates to UVA light in 0.5 ml reaction volumes containing 5-MTHF and folic acid or PCA in the absence or presence of sodium ascorbate in 10 mM potassium phosphate buffer pH 7.42. […]

[4] = Reaction with photoexcited pterin-6-carboxylic acid under UVA, depletion of 5-MTHF (HPLC)
Method: as §2, §3, §4

[5] = Rate of reaction with singlet oxygen in water; type: physicochemical; details: inferred from competition with azide
[6] = test system: Supercoiled plasmid DNA, PBR 322; experiment: UVA-mediated strand breaks in plasmid DNA, agarose gel electrophoresis; details: for strand-breaks in supercoiled plasmid DNA on UVA exposure / effect on the plasmid in the dark: 50 μM; for strand-breaks in supercoiled plasmid DNA on UVA exposure: UVA for 80 min, FIG. 3; for effect on the plasmid in the dark: incubated 80 min in the dark
Method: as §2, §3
Strand breaks in DNA were detected as follows. Supercoiled plasmid DNA is converted into a nicked circular-form (relaxed) due to single-strand breaks, and subsequently into a linear form due to double-strands breaks. The three forms can be separated by agarose gel electrophoresis. Supercoiled DNA migrates further than the linear form, which in turn migrates further than the relaxed form.
A mixture of 0.1 μg of plasmid DNA, PBR 322, and folic acid, 5-MTHF or PCA in 10 mM potassium phosphate, pH 7.4, was incubated for 80 min under the above UVA-irradiation conditions for a total exposure of 4 J/cm^2. To partially maintain the concentration of 5-MTHF, a 0.25 mM solution was continuously added to the reaction mixture at 1.1 μl/min using a Harvard syringe pump with magnetic stirring.
A sample of 10 μl of the reaction mixture was then subjected to agarose gel electrophoresis after addition of 2 μl of 10× gel loading buffer. Agarose gel for electrophoresis was prepared by dissolving 0.9% agarose in 45 mM Tris-borate buffer (pH 8.3), containing 1 mM EDTA. Electrophoresis was run at 4 V/cm for 1 h. The gel was incubated with 1 μg/ml SYBR Safe stain, and the DNA bands were scanned using Fuji FLA-5000 phosphor-imaging system.

[7] = cited from earlier work
[8] = test system: Rose Bengal-loaded THP-1 cells; details: viable Rose Bengal-loaded THP-1 cells; cited from earlier work

Question: Which “depletion of 5-MTHF by visible-light sensitized Rose Bengal” value ([1]; 25 μM 5-MTHF, pH 7.4, Rose Bengal, SOD, FIG. 2A) does the source give for `CN1c2c(nc(N)[nH]c2=O)NC[C@@H]1CNc1ccc(C(=O)N[C@@H](CCC(=O)[O-])C(=O)O)cc1.CN1c2c(nc(N)[nH]c2=O)NC[C@@H]1CNc1ccc(C(=O)N[C@@H](CCC(=O)[O-])C(=O)O)cc1.[Ca+2]` [5-MTHF, 5-Methyl-6S-tetrahydrofolic acid calcium salt] here?
Answer: The value was “depleted”.

Question: What about the “effectiveness in scavenging singlet oxygen relative to azide” value ([1]; competition reaction, high concentrations of O2, FIG. 2B) of the same molecule?
Answer: The value was “about 20 fold”.

Question: What about the “stability when illuminated alone” value ([2]; UVA, UVB or visible light, no photosensitizer, calcium salt) of the same molecule?
Answer: The value was “stable; also recorded: unaffected; also recorded: not photolyzed directly by UV”.

Question: And the “degradation (autooxidation) on exposure to UVA or UVB” value ([2]; in 1 hr, same extent as in the absence of light)?
Answer: The value was under 5%.

Question: And the “5-MTHF concentration that prevented photodegradation of folic acid” value ([3]; UV exposure)?
Answer: The value was “below 10 μM”.

Question: What about the “folic acid maintained until 5-MTHF decayed below this concentration” value ([3]; photolysis of folic acid in the presence of 5-MTHF, FIG. 1) of the same molecule?
Answer: Its value is “below 1 μM”.

Question: What about the “time to complete depletion of 5-MTHF” value ([4]; initial 25 μM 5-MTHF, 50 μM PCA, UVA exposure) of the same molecule?
Answer: Its value is at most 15 min.

Question: What about the “rate of reaction with singlet oxygen” value [5] of the same molecule?
Answer: The value was “nearly diffusion limited”.

Question: And the “UVA mediated DNA-damage in the presence of folic acid or PCA” value ([6]; 50 μM folic acid or PCA, UVA 80 min, 5-MTHF added continuously, 10 μM falling to 0.25 μM, calcium salt)?
Answer: Its value is “inhibited”.

Question: What about the “cleavage of plasmid DNA induced by the compound alone under UV” value ([6]; 5-MTHF alone, UV) of the same molecule?
Answer: The value was “does not induce cleavage of plasmid DNA”.

Question: What about the “5-MTHF concentration that prevented strand-breaks in plasmid DNA” value ([6]; in the presence of photoexcited PCA) of the same molecule?
Answer: The value was “below 10 μM”.

Question: With `Nc1nc2ncc(C(=O)O)nc2c(=O)[nH]1` [PCA, pterin-6 carboxylic acid] as the molecule, how does the “strand-breaks in supercoiled plasmid DNA on UVA exposure” value [6] read?
Answer: The value was “high percentage of strand-breaks”.

Question: And the “effect on the plasmid in the dark” value [6]?
Answer: Its value is “no effect”.

Question: What does the source list for `O=C1O[C@H]([C@@H](O)CO)C([O-])=C1O.[Na+]` [ascorbate, sodium ascorbate]?
Answer: rate constant for the reaction with singlet oxygen in water [7]: 8.3e+06 M⁻¹ s⁻¹; rate of loss of 5-MTHF in Rose-Bengal induced photosensitization ([1]; mM levels of sodium ascorbate, high oxygen, FIG. 2C): decreased; effect on the generation of protein-derived peroxides [8]: no effect; maintenance of 5-MTHF throughout the reaction ([4]; 1 mM ascorbate, 25 μM 5-MTHF, 10 μM PCA, UVA): substantially maintained

Question: Which “rate constant for the reaction with singlet oxygen in water” value [7] does the source give for `[N-]=[N+]=[N-].[Na+]` [azide, Sodium azide] here?
Answer: Its value is 4.5e+08 M⁻¹ s⁻¹.

Question: What about the “decrease of the depletion rate of 5-MTHF” value ([1]; 0.5 mM azide, 100% O2, 10 μM Rose Bengal, FIG. 2B) of the same molecule?
Answer: The value was “about 50%”.

Question: And the “decrease of the initial rate of depletion of 5-MTHF” value ([1]; 5 mM azide, 100% O2, 10 μM Rose Bengal, FIG. 2B)?
Answer: The value was “about 80%”.

Question: And the “protection against UVA mediated DNA-damage” value ([6]; 10 mM sodium azide, same conditions)?
Answer: Its value is “full protection”.

Question: What does the source list for `Nc1nc2ncc(CNc3ccc(C(=O)N[C@@H](CCC(=O)O)C(=O)O)cc3)nc2c(=O)[nH]1` [folic acid]?
Answer: photolysis products on exposure to UVA ([2]; UVA, HPLC, similar results with UVB): initially yields, p-aminobenzoylglutamate and 6-FP; strand-breaks in supercoiled plasmid DNA on UVA exposure [6]: high percentage of strand-breaks; effect on the plasmid in the dark [6]: no effect
